We go through 4 molecules from patent US20060024373A1, “Cross-linked hyaluronic acid-laminin gels and use thereof in cell culture and medical implants” (priority 2000, published 2006).

For data set [1], the system named is Endothelial cells (HUVEC). Briefly: Attachment and growth of endothelial cells on or in substrates and milieus. It is filed as cell-based. How it is done:
In order to test the ability of HA-LN-gel to support the attachment and growth of endothelial cells, several experiments were conducted:
Endothelial cells (HE4 split #1), grown on gelatin, were collected by 0.25% trypsin-EDTA digestion. HUVEC were counted and 1.35×10^6 cells were divided into treatment groups. The cells were seeded in triplicates into 12-well plates at a concentration of 50,000 cells per well. The treatment groups were as follows: • 1. Cells seeded on the plastic • 2. Cells seeded on gelatin coating • 3. Cells seeded on HA (1 ml)+medium (0.5 ml) coating. Each well was coated with ˜0.2 ml • 4. Cells (150,000) seeded in HA (1 ml)+medium (0.5 ml). 0.5 ml per well. • 5. Cells seeded on gelatin and after attachment (24 hours) covered with HA+medium (as above, coated with 0.5 ml per well) • 6. Cells seeded on Laminin coating • 7. Cells seeded on HA-LN-gel coating (0.9 ml HA, 0.1 ml Laminin, 0.4 ml medium). Coating was with ˜0.2 ml per well • 8. Cells (150,000) seeded in HA-LN-gel (as in g) • 9. Cells seeded on gelatin and after attachment (24 hours) covered with HA-LN-gel (as in g above)
The morphology of the seeded cells was monitored microscopically every day.
Therefore the above experiment was repeated using 10% of the laminin concentration. Endothelial were seeded in 12 well plates in triplicates (50000 cell/well) as follows: • 1. Cells on gelatin coating as control. • 2. Cells on HA-LN-gel (10% of the usual concentration of laminin) coating. • 3. Cells in HA-LN-gel (10% of the usual concentration of laminin) • 4. Higher concentration of cells (100,000/well) in HA-LN-gel (10% of the usual concentration of laminin).

Data set [2] concerns neuronal cells dissociated from brains of 14-16 days rat embryos. Kind of data set: Rat embryonic brain cells cultured in enriched HA-LN-gel with antioxidants / protective agents. It is filed as cell-based. Conditions: for most effective dose: agent added to enriched HA-LN-gel before culturing the cells, AA tested at 1 mM, 330 μM, 100 μM, NAC at 0.1, 1, 10 μM; for neuronal sprouting: first 24-48 hours of culture in the enriched gel, versus untreated control cultures. How it is done: Neuronal cells were manually dissociated from brains of 14-16 days rat embryos. Cells were embedded in the HA-LN-gel, which was enriched as described herein above. NAC and AA were obtained from SIGMA (Cat. No. 616-91-1 and […]; Lot 108H00575 and 096H02811, respectively). Pifithrin-α, cyclic (Calbiochem, Cat No. 506134, lot:B41595) is a very stable analog of pifithrin-α, with reduced cytotoxicity. NAC, AA and Pifithrin-α cyclic were added to the HA-LN-gel (enriched with neural growth factors) prior to culturing of cells. Culture medium was changed twice a week. All the experiments contained control cultures (without treatment of NAC or AA or Pifithrin-α. 5-7 experiments were performed in 12 wells, in triplicates. Dissociated brain cells were attached to DE53 cylindrical, positively charged microcarriers (MCs), and suspended in brain medium for 4-17 days ([…] 1990 Methods in Neur 2:195-209). The floating cell-MC aggregates were transferred (using fine spatula, under a stereo microscope) into HA-LN-gel enriched with the indicated growth factors or Antioxidants. During one month of daily observations the following differences (which were more pronounced in the stationary MC-cultures) were observed: […]

“laminin: adhesive glycoprotein; Murine LN-1 obtained from Sigma”: in data set [1] (50,000 cells per well, 12-well plates, usual laminin concentration, monitored microscopically every day), the “morphology and attachment of cells seeded on the coating” value is “appeared round and did not attach well to the substrate”. In addition, the “toxicity to endothelial cells as substrate coating” value in data set [1] (cells seeded on the coating) is listed as “toxic”. Moreover, the “toxic effects on EC, overall finding of first experiment” value in data set [1] (laminin alone or as a component of the HA-LN-gel, at the concentration examined) is recorded as “some toxic effects”.

In the case of `CC(=O)N[C@@H](CS)C(=O)O` [N-acetyl-L-cysteine], in data set [2], the most effective dose amounted to 10 µM and the neuronal sprouting entry is on record as “stimulated intensive sprouting”.

For the molecule `O=C1O[C@H]([C@@H](O)CO)C(O)=C1O` [Ascorbic acid], in data set [2] (1 mM, 330 μM or 100 μM applied to the cell cultures), the “effectiveness of the tested concentrations” value was “effective”. Also, in data set [2], the most effective dose was 330 µM and the neuronal sprouting entry is listed as “stimulated intensive sprouting”.

`Cc1ccc(-c2cn3c4c(sc3n2)CCCC4)cc1` [Pifithrin-α, cyclic]: the “effectiveness compared between concentrations” value in data set [2] (100 and 200 nM versus 2 μM) is reported as “more effective”. The neuronal sprouting result in data set [2] was “stimulated intensive sprouting”.
